Experiments:
[1] = background statement; cited from earlier work
[2] = Solubility of poorly-soluble UV absorbers in oils: triazine derivative (Test Example 3); type: physicochemical; details: 2,4-bis{[4-(2-ethylhexyloxy)-2-hydroxy]phenyl}-6-(4-methoxyphenyl) 1,3,5-triazine dissolved in the oil; supernatant after crystal nuclei, 0° C
Protocol: (§1) Each of triazine derivative and dibenzoylmethane derivative was warmed and dissolved into each oil shown in Table 2, and then each mixture was cooled to room temperature. After adding crystal nuclei, they were cooled at 0° C. A saturation solubility of each supernatant fluid was measured.
2,4-bis{[4-(2-ethylhexyloxy)-2-hydroxy]phenyl}-6-(4-methoxyphenyl) 1,3,5-triazine was used as triazine derivative.

[3] = Solubility of poorly-soluble UV absorbers in oils: dibenzoylmethane derivative (Test Example 3); type: physicochemical; details: 4-tert-butyl-4′-methoxydibenzoylmethane dissolved in the oil; supernatant after crystal nuclei, 0° C
Protocol: as §1
4-tert-butyl-4′-methoxydibenzoylmethane was used as a dibenzoylmethane derivative (i.e. component (a)).

| SMILES | absorption maximum [1] | Saturation solubility of triazine derivative [2] [%] | Saturation solubility of dibenzoylmethane derivative [3] [%] |
| --- | --- | --- | --- |
| COc1ccc(C(=O)CC(=O)c2ccc(C(C)(C)C)cc2)cc1 [4-tert-butyl-4′-methoxydibenzoylmethane] | around 360 nm |  |  |
| CCCCCCCC(=O)OCC(COC(=O)CCCCCCC)(COC(=O)CCCCCCC)COC(=O)CCCCCCC [Pentaerithrityl tetraoctanoate] |  | 4 | 6 |

Reference: patent US8282910B2, “Composition for skin or hair” (Shiseido Company Ltd., priority 2007, dated 2012)
